The target of assay [1] is T1, recombinant human MAO-B (hMAOB) (Homo sapiens, UniProt P27338).
T1 sequence (P27338 1-520): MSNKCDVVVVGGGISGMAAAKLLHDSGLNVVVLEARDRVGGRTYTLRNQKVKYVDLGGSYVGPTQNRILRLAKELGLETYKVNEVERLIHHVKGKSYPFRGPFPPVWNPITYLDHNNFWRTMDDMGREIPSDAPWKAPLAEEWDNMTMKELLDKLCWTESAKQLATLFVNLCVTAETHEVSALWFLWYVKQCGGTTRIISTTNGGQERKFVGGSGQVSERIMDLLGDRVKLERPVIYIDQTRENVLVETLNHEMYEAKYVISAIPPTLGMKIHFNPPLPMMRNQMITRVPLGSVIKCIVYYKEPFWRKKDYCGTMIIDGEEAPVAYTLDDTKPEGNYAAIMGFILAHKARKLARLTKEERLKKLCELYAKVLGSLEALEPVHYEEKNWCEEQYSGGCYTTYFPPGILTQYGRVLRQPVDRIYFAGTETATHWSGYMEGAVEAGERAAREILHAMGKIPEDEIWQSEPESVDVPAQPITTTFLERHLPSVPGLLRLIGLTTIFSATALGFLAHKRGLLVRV
The experiment in a line: biochemical. Format: biochemical. To be noted: for inhibition at 1 µM: 1 µM compound; for IC50: means ± SD of three experiments. The method, then: (§1) Monoamine oxidase (MAO) activity for both recombinant human MAO-A (hMAOA) and MAO-B (hMAOB) was assessed using a fluorometric assay based on the Amplex® UltraRed reagent. This method, originally reported by Bautista-Aguilera et al. and later adapted with minor changes by Kasabova-Angelova et al., detects hydrogen peroxide or peroxidase activity present in enzymes or biological samples. In this assay, Amplex® Red reacts in a 1:1 molar ratio with hydrogen peroxide in the presence of peroxidase, producing the red-fluorescent compound resorufin. Due to resorufin’s strong extinction coefficient (58,000 ± 5000 cm^−1·M^−1), measurements could be accurately taken using either fluorometric or spectrophotometric methods. […] The control conditions included the use of purified hMAOA or hMAOB in reaction buffer, enzyme solutions with hydrogen peroxide, and buffer alone. All the test compounds were initially prepared at a 1 µM final concentration. These compounds were combined with either hMAOA or hMAOB and loaded into a 96-well plate (with eight replicates per test compound), followed by incubation for 30 min at 37 °C in the dark. Subsequently, a 50 µL detection mix was added to each well. This mix contained Amplex® Red, horseradish peroxidase (HRP), and tyramine substrate, all prepared in a reaction buffer. As this enzymatic reaction proceeded continuously, the fluorescence signal was recorded every 30 min (at 0, 30, 60, 90, 120, and 150 min) to track enzymatic kinetics.

The next assay deals with T2, BChE (Equus caballus, UniProt P81908).
T2 construct: purchased Sigma-Aldrich, Hamburg, Germany; host or cells: equine serum
T2 sequence (P81908 whole entry): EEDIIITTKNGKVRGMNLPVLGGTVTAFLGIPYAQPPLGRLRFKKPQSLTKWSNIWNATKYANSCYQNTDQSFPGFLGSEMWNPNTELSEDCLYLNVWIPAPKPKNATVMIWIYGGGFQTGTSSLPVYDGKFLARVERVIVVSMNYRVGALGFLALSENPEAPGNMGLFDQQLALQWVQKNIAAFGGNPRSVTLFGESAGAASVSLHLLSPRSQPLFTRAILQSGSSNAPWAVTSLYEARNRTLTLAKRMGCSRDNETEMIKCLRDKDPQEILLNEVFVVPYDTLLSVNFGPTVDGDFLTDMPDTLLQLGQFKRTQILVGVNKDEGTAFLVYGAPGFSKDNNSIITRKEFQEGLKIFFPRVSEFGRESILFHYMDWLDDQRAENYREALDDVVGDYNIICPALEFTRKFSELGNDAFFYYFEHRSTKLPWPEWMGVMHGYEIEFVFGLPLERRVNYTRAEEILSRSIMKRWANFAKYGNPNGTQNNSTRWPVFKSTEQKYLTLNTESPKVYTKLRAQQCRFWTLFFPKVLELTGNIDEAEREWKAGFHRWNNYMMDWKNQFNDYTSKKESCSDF
The experiment in a line: biochemical. To be noted: for IC50: means ± SD of three experiments, read-out: BChE IC50; for inhibition at 200 µM: read-out: Inhibition Activity 200 µM BChE. The protocol:
(§2) AChE and BChE inhibitory activity of the newly synthesized pyrrole-based compounds was measured using the microplate assay described by Ellman et al. with the modifications added by López et al.. The compounds were tested at concentrations between 0.01 and 200 μM. First, they were dissolved in phosphate buffer (PBS) (8 mM K2HPO4, 2.3 mM NaH2PO4, 0.15 M NaCl, pH 7.5), assisted by the addition of no more than 5% MeOH. Then, they were serially diluted with PBS to provide the concentration range needed. Acetylcholinesterase from Electrophorus electricus and butyrylcholinesterase from equine serum (Sigma-Aldrich, Hamburg, Germany) were used with a substrate solution of 5,5′-dithiobis(2-nitrobenzoic acid) (DTNB) with acetylthiocholine iodide (ATCI) or butyrylthiocholine iodide (BTCI), respectively (0.04 M Na2HPO4, 0.2 mM DTNB, 0.24 mM ATCI or BTCI, pH 7.5). A total of 50 μL of AChE or BChE (0.25 U/mL, in PBS) and 50 μL of the tested compound solution were added to the wells. Incubation of the plates was performed at room temperature for 30 min. Then, 100 μL of substrate solution was added to start the enzymatic reaction. […] Enzyme activity was calculated as an inhibition percentage compared to an assay including buffer instead of an inhibitor.

The target of a further assay is T3, AChE (Electrophorus electricus, UniProt O42275).
T3 construct: purchased Sigma-Aldrich, Hamburg, Germany
T3 sequence (O42275 24-633): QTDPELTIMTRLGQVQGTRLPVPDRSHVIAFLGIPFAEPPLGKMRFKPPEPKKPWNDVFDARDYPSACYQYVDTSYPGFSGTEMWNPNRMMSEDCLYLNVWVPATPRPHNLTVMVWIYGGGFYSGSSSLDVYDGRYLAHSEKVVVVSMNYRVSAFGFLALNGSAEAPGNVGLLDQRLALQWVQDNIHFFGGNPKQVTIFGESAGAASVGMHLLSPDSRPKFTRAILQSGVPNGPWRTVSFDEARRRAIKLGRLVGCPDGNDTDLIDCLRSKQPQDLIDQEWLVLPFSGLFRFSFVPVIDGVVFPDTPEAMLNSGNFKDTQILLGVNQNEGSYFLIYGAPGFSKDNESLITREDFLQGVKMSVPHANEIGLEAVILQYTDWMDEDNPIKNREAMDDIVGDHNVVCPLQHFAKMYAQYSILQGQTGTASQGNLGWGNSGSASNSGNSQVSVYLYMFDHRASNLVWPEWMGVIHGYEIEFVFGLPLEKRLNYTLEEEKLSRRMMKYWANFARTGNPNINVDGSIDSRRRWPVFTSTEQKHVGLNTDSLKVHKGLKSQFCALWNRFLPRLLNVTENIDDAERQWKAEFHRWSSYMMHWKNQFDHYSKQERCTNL
Put plainly: biochemical. Format: biochemical. To be noted: for inhibition at 200 µM: 200 µM compound; for IC50: means ± SD of three experiments. The method, then:
as §2

The target in assay [2] is T4, recombinant human MAO-A (hMAOA) (Homo sapiens, UniProt P21397).
T4 sequence (P21397 1-527): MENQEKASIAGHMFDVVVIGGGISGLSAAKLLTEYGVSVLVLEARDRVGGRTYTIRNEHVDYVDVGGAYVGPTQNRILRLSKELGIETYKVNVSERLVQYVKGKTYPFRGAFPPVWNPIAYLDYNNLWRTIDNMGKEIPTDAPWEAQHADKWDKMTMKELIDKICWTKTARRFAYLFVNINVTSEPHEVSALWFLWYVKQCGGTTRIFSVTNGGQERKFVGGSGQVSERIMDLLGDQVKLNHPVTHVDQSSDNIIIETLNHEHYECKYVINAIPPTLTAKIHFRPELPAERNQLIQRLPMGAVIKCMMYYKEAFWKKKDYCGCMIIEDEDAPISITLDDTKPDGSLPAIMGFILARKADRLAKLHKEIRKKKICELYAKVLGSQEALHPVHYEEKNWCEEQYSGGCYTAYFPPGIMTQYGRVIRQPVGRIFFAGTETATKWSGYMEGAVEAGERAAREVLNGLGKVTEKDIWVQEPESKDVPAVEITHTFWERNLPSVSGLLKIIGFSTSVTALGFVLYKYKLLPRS
Put plainly: MAO-A inhibition, fluorometric Amplex UltraRed assay. Format: biochemical. As to conditions: for inhibition at 1 µM: 1 µM compound, read-out: Inhibition Activity 1 µM MAO-A; for IC50: means ± SD of three experiments, read-out: MAO-A IC50. The method, then:
as §1

Regarding `Cc1ccc(C)n1CCN1CCOCC1` [EM-DC-16, 4-[2-(2,5-dimethyl-1H-pyrrol-1-yl)ethyl]morpholine], the inhibition at 1 µM in assay [1] was found to be 80 ± 7.1%; in assay [2], 80 ± 7.3%. Moreover, the 50% inhibitory concentration (IC50) was 0.47 ± 0.1 µM in assay [1], over 200 µM on BChE, 11.8 ± 1.1 µM at AChE and 0.46 ± 0.1 µM in assay [2]. In addition, the values for the inhibition at 200 µM on BChE and against AChE were 48.8 ± 1.5% and 85.3 ± 2.43%, respectively.

With `Cc1ccc(C)n1CC(C)c1ccc(O)cc1` (stereo not drawn) [EM-DC-11, 4-[1-(2,5-dimethyl-1H-pyrrol-1-yl)propan-2-yl]phenol], the inhibition at 1 µM was determined as 97 ± 7.1% in assay [1] and 97 ± 6.9% in assay [2]. In addition, the concentration for half-maximal inhibition (IC50) in assay [1] was over 100 µM; at BChE, over 200 µM; on AChE, over 200 µM; in assay [2], over 100 µM. The inhibition at 200 µM at BChE turned out to be 30.6 ± 2.11%; against AChE, 29 ± 2.47%.

On to `CCC(C)Cn1c(C)ccc1C` (stereo not drawn) [EM-DC-26, 2,5-dimethyl-1-(2-methylbutyl)-1H-pyrrole], for which the inhibition at 1 µM in assay [1] and in assay [2] was 97 ± 7.1% throughout. Also, the concentration for half-maximal inhibition (IC50) in assay [1] is over 100 µM; on BChE, 106.5 ± 0.7 µM; on AChE, over 200 µM; in assay [2], over 100 µM. The inhibition at 200 µM amounted to 68.2 ± 1.6% on BChE and 12.8 ± 3.54% on AChE.

`Cc1ccc(C)n1-c1ccc(C(=O)NCC(=O)O)cc1` [EM-DC-24, [4-(2,5-dimethyl-1H-pyrrol-1-yl)benzamido]acetic acid]: the inhibition at 1 µM in assay [1] and in assay [2] was 80 ± 7.1% in each case. For the same molecule, the IC50 in assay [1] was 0.59 ± 0.1 µM; at BChE it was over 200 µM; against AChE it was over 200 µM; in assay [2] it was 0.58 ± 0.1 µM. Further, the inhibition at 200 µM was 0% at BChE and 24.1 ± 4.1% against AChE.

On to `Cc1ccc(C)n1CCc1ccc(Cl)cc1` [EM-DC-8, 1-[2-(4-chlorophenyl)ethyl]-2,5-dimethyl-1H-pyrrole], for which the inhibition at 1 µM amounted to 99 ± 7.1% in assay [1] and 99 ± 7.3% in assay [2]. For the same molecule, the IC50 in assay [1] was over 100 µM; at BChE, over 200 µM; against AChE it was over 200 µM; in assay [2], over 100 µM. Further, the figures for the inhibition at 200 µM at BChE and against AChE were 35.4 ± 2.91% and 31.1 ± 2.48%, respectively.

For the molecule `Cc1ccc(C)n1C(CO)C(=O)O` (stereo not drawn) [EM-DC-22, 2-(2,5-dimethyl-1H-pyrrol-1-yl)-3-hydroxypropanoic acid], the values for the inhibition at 1 µM in assay [1] and in assay [2] were 99 ± 7.1% and 99 ± 7.2%, respectively. Besides, the concentration for half-maximal inhibition (IC50) in assay [1] is over 100 µM; at BChE, over 200 µM; against AChE it was over 200 µM; in assay [2], over 100 µM. Further, the inhibition at 200 µM at BChE and at AChE was 0% in each case.

As to `Cc1ccc(C)n1C1CCN(Cc2ccccc2)CC1` [EM-DC-25, 1-benzyl-4-(2,5-dimethyl-1H-pyrrol-1-yl)piperidine], the inhibition at 1 µM in assay [1] came out at 98 ± 7.1%; in assay [2], 60 ± 7.1%. Besides, the half-maximal inhibitory concentration (IC50) in assay [1] was over 100 µM; on BChE, 104 ± 2.5 µM; against AChE, 87.2 ± 5.7 µM; in assay [2], 0.33 ± 0.1 µM. In addition, the inhibition at 200 µM on BChE stood at 69.8 ± 0.81%; on AChE, 74.8 ± 1.47%.

For `Cc1ccc(C)n1-c1ccccc1Br` [EM-DC-3, 1-(2-bromophenyl)-2,5-dimethyl-1H-pyrrole], the inhibition at 1 µM in assay [1] is 75 ± 7.1%; in assay [2] it was 70 ± 7.2%. In addition, the IC50 in assay [1] is 0.56 ± 0.1 µM; on BChE it was over 200 µM; on AChE, over 200 µM; in assay [2], 0.52 ± 0.1 µM. In addition, the results for the inhibition at 200 µM on BChE and at AChE were 0.04 ± 9.01% and 8.32 ± 2.64%, respectively.

Turning to `Cc1ccc(C)n1C(Cc1ccc(O)cc1)C(=O)O` (stereo not drawn) [EM-DC-20, 2-(2,5-dimethyl-1H-pyrrol-1-yl)-3-(4-hydroxyphenyl)propanoic acid], the values for the inhibition at 1 µM in assay [1] and in assay [2] were 75 ± 7.1% and 75 ± 6.4%, respectively. Also, the 50% inhibitory concentration (IC50) in assay [1] was 0.62 ± 0.1 µM; at BChE, over 200 µM; against AChE, over 200 µM; in assay [2] it was 0.6 ± 0.1 µM. Further, the inhibition at 200 µM on BChE and on AChE was 0% throughout.

For `Cc1ccc(C)n1-c1ccc(Br)cc1` [EM-DC-4, 1-(4-bromophenyl)-2,5-dimethyl-1H-pyrrole], the inhibition at 1 µM in assay [1] came to 98 ± 7.1%; in assay [2], 60 ± 6.8%. The concentration for half-maximal inhibition (IC50) in assay [1] is over 100 µM; on BChE it was over 200 µM; on AChE it was over 200 µM; in assay [2] it was 0.32 ± 0.1 µM. Further, the results for the inhibition at 200 µM on BChE and on AChE were 0% and 1.4 ± 0.38%, respectively.

Turning to `Cc1ccc(C)n1C(Cc1ccc(O)c(O)c1)C(=O)O` (stereo not drawn) [EM-DC-23, 3-(3,4-dihydroxyphenyl)-2-(2,5-dimethyl-1H-pyrrol-1-yl)propanoicacid], the inhibition at 1 µM in assay [1] amounted to 98 ± 7.1%; in assay [2], 98 ± 7.3%. Further, the IC50 in assay [1] was over 100 µM; at BChE, over 200 µM; against AChE, over 200 µM; in assay [2], over 100 µM. Besides, the inhibition at 200 µM amounted to 0% at BChE and 21.8 ± 2.14% at AChE.

As for `Cc1ccc(C)n1-c1ccc(O)c(C(=O)O)c1` [EM-DC-18, 5-(2,5-dimethyl-1H-pyrrol-1-yl)-2-hydroxybenzoic acid], the inhibition at 1 µM in assay [1] was 98 ± 7.1%; in assay [2] it was 98 ± 6.5%. Further, the IC50 in assay [1] was over 100 µM; on BChE, over 200 µM; on AChE, over 200 µM; in assay [2] it was over 100 µM. For the same molecule, the inhibition at 200 µM on BChE came to 0%; against AChE, 16 ± 1.4%.

These data come from publication PMC12655551, “Design, Synthesis, and Evaluation of Pyrrole-Based Selective MAO-B Inhibitors with Additional AChE Inhibitory and Neuroprotective Properties Identified via Virtual Screening” (Pharmaceuticals, 2025).
